The text below walks through data of patent publication US9962341B2, “Active pharmaceutical ingredient (API) comprising cannabinoids for use in the treatment of cancer” (GW Pharma Limited, priority 2014, dated 2018).

Read-outs that look alike come from different tables or passages of the source.

For this assay, the system named is BT474. In words: Cell viability (CellTiter-Blue, 72 h), phytocannabinoids alone and in combination, BT474 breast cancer cells. The class given is cell-based. To be noted: for IC50: Homo sapiens; for effect (but only 50% effect): extent of effect reached. As for the experimental part:
The cell lines tested in this Example were as follows. Breast cancer: MDA-MB-231; SK-BR3; and BT474. Liver cancer: HepG2.
The phytocannabinoids were tested alone and in various ratioed combinations in media containing final concentrations of 10% and 1% foetal bovine serum at 72 h for the breast and prostate cancer lines and 1% foetal bovine serum for the liver cancer line HepG2.
Each tumour cell line was maintained in vitro in RPMI 1640+10% heat inactivated FBS and 2 mM L-glutamine (growth media) at 37° C. in 5% CO2 and humidified conditions. The cells were harvested, washed, re-suspended into growth medium and counted. The cells were re-suspended into assay media (RPMI 1640+5% heat inactivated FBS+ and 2 mM L-glutamine) at 8×104-2×10^5 cells/ml (dependent upon cell type) and plated into the middle 240 wells of 384 well tissue culture plates (Corning CellBind, black-wall plates) 12.5 μl/well aliquots; 62.5 μl of growth media was aliquoted into the outer wells. There were 4 plates for each cell line. The plates were incubated overnight at 37° C., in 5% humidified CO2.
The phytocannabinoid test compounds were prepared in 100% DMSO vehicle at a stock concentration of 10 mM.
Starting with the 10 mM stock, the compounds were diluted to 125 μM in FBS-free growth media.
These were diluted in FBS-free growth media to 125 μM before serial dilution.
5 volumes of CBD 10 mM stock was added to 1 volume of the other agent (also at 10 mM) and 4 volumes of DMSO. This made a final concentration of 5 mM:1 mM. This was then diluted in FBS-free growth media so the top concentration of CBD would be 125 μM (before serial dilution). Each compound and compound combination stock was serially diluted in FBS-free growth media (containing 1.25% v/v DMSO) from 125 μM to 41.7, 13.89, 4.63, 1.54, 0.514, 0.171, 0.057 and 0.019 μM (1.25× final assay concentrations). Vehicle was prepared at equivalent dilutions in assay media. The top final concentration of compound in the assay was always 100 μM so CBD5:1CBG was 100 μM CBD and 20 μM CBG.
Taxotere SOC was prepared at a stock concentration of 1 mM in 100% DMSO. Taxotere was serially diluted from the stock solution into FBS-free growth media to 12.5 μM, then serially diluted in FBS-free growth media containing 1.25% DMSO to 4.17, 1.39, 0.46, 0.154, 0.051, 0.017, 0.006, 0.002 μM (1.25× final assay concentrations).
This was then serially diluted in FBS-free growth media to 0.417, 0.139, 0.046, 0.0154, 0.0051, 0.0017, 0.0006, 0.0002 μM (1.25× final assay concentrations). This was plated as a positive control for the SKBR3 & BT474 cell lines. 50 μl per well of compound/vehicle dilutions was added to the plates in replicates of 6. Where applicable total volume in the well was made up to 62.5 μl with assay media.
The plates were incubated for 72 h at 37° C. in 5% humidified CO2. To develop the plates, at 72 h, 10 μl of CellTiter-Blue™ reagent was added to each test/blank well. The plates were incubated at 37° C., 5% humidified CO2. Fluorescence was measured using a Flex II Station plate reader (570 nm excitation wavelength, 600 nm emission wavelength, 590 nm cut-off) after 3 h.
The experimental conditions were the same as the experiment above, with the same compound dilutions and volumes for plating but using growth media containing 10% FBS rather than FBS-free media.
The raw data values expressed in relative fluorescent units were normalised to the vehicle for each individual plate and any reduction in fluorescence indicated a decrease in viability.
The data were analysed in GraphPad PRISM using a non-linear sigmoidal plot with variable slope (asymmetric five point linear regression) and where possible an IC50 value for each single compound and combination was generated.
For the calculation, raw data values expressed in relative fluorescent units were normalised to the vehicle for each individual plate (set as 0%) and the reduction in fluorescence calculated as an increase in inhibition of viability.

[1] abbreviates: BT-474, 72 h, BT474, 1% FBS, 72 h, read-out: IC50 values.
[2] abbreviates: BT-474, 72 h, BT474, 10% FBS, 72 h, read-out: IC50 values.
Where [3] appears, read: BT-474, BT474, 1% FBS, Calcusyn median-effect analysis, read-out: Dm (median effect dose).

As for `C=C(C)[C@@H]1CCC(C)=C[C@H]1c1c(O)cc(CCCCC)cc1O` [CBD, Cannabidiol], the IC50 reads like this: under setting [1], 8 µM; under setting [2], 28 µM; under setting [3], 16.9 µM.

`C=C(C)[C@@H]1CCC(C)=C[C@H]1c1c(O)cc(CCCCC)c(C(=O)O)c1O` [CBDA, Cannabidiolic acid]: the IC50 is, setting by setting: under setting [1], 21.8 µM; under setting [2], > 100 µM; under setting [3], 43.3 µM.

On to `CCCCCc1cc(O)c(C/C=C(\C)CCC=C(C)C)c(O)c1` [CBG, Cannabigerol], for which the IC50 is, setting by setting: under setting [1], 7.9 µM; under setting [2], 37 µM; under setting [3], 14.8 µM.

`CCCCCc1cc(O)c(C/C=C(\C)CCC=C(C)C)c(O)c1C(=O)O` [CBGA, Cannabigerolic acid]: the IC50 is, setting by setting: under setting [1], 24.8 µM; under setting [2], ~100 µM; under setting [3], 27.9 µM.

As to `CCCc1cc(O)c2c(c1)OC(C)(C)[C@@H]1CCC(C)=C[C@@H]21` [THCV, Tetrahydrocannabivarin], the IC50 is, setting by setting: under setting [1], 13.3 µM; under setting [2], 31 µM; under setting [3], 20.3 µM.

Turning to `CC(=O)O[C@@]12CO[C@@H]1C[C@H](O)[C@@]1(C)C(=O)[C@H](O)C3=C(C)[C@@H](OC(=O)[C@H](O)[C@@H](NC(=O)OC(C)(C)C)c4ccccc4)C[C@@](O)([C@@H](OC(=O)c4ccccc4)[C@H]21)C3(C)C` [Taxotere, Docetaxel, reference compound], the “effect (but only 50% effect)” value by setting is: (BT474, 1% FBS) “only 50%”; (BT474, 10% FBS) 50% effect). The IC50 by setting is: under setting [1], < 0.001 µM; under setting [2], < 0.001 µM.
